Measurements published in the supplement of paper PMC10307832.

What was measured:
Experiment in all cases: relative viability (nuclei count vs DMSO), 5 days (fraction); higher = more cells survive
Staurosporine + OSI-027 = compound: CN[C@@H]1C[C@H]2O[C@@](C)([C@@H]1OC)n1c3ccccc3c3c4c(c5c6ccccc6n2c5c31)C(=O)NC4 [Staurosporine] + COc1cccc2cc(-c3nc([C@H]4CC[C@H](C(=O)O)CC4)n4ncnc(N)c34)[nH]c12 [OSI-027] (partner 0.5 µM)
Method in brief: (§1)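 Lung cancer cell lines were pin-tool dosed in 1536-well plates on the day after seeding, with either a lone drug or a fixed anchor-drug dose plus five library-drug doses (not always all listed) in √10 steps. Nuclei were counted on 4× images after 5 days. Relative viability is the ratio of treated-well to vehicle-well nuclei counts, with each value a median of duplicate plates.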

Sulindac + Dasatinib = compound: CC1=C(CC(=O)O)c2cc(F)ccc2/C1=C\c1ccc([S+](C)[O-])cc1 [Sulindac] + Cc1nc(Nc2ncc(C(=O)Nc3c(C)cccc3Cl)s2)cc(N2CCN(CCO)CC2)n1 [Dasatinib] (partner 0.075 µM)
Method in brief: as §1

Staurosporine + AZD7762 = compound: CN[C@@H]1C[C@H]2O[C@@](C)([C@@H]1OC)n1c3ccccc3c3c4c(c5c6ccccc6n2c5c31)C(=O)NC4 [Staurosporine] + NC(=O)Nc1cc(-c2cccc(F)c2)sc1C(=O)N[C@H]1CCCNC1 [AZD7762] (partner 0.2 µM)
Method in brief: as §1

Sulindac + Palbociclib = compound: CC1=C(CC(=O)O)c2cc(F)ccc2/C1=C\c1ccc([S+](C)[O-])cc1 [Sulindac] + CC(=O)c1c(C)c2cnc(Nc3ccc(N4CCNCC4)cn3)nc2n(C2CCCC2)c1=O [Palbociclib] (partner 0.5 µM)
Method in brief: as §1

| Cell Line | relative viability (Staurosporine + OSI-027; first compound 0.005 µM) | relative viability (Staurosporine + OSI-027; first compound 0.01581 µM) | relative viability (Staurosporine + OSI-027; first compound 0.05 µM) | relative viability (Staurosporine + OSI-027; first compound 0.1581 µM) | relative viability (Sulindac + Dasatinib; first compound 0.08 µM) | relative viability (Sulindac + Dasatinib; first compound 0.253 µM) | relative viability (Sulindac + Dasatinib; first compound 0.8 µM) | relative viability (Sulindac + Dasatinib; first compound 2.53 µM) | relative viability (Sulindac + Dasatinib; first compound 8 µM) | relative viability (Staurosporine + AZD7762; first compound 0.005 µM) | relative viability (Staurosporine + AZD7762; first compound 0.05 µM) | relative viability (Staurosporine + AZD7762; first compound 0.1581 µM) | relative viability (Staurosporine + AZD7762; first compound 0.5 µM) | relative viability (Sulindac + Palbociclib; first compound 0.08 µM) | relative viability (Sulindac + Palbociclib; first compound 0.253 µM) | relative viability (Sulindac + Palbociclib; first compound 0.8 µM) | relative viability (Sulindac + Palbociclib; first compound 2.53 µM) | relative viability (Sulindac + Palbociclib; first compound 8 µM) | relative viability (Staurosporine + OSI-027; first compound 0.5 µM) | relative viability (Staurosporine + AZD7762; first compound 0.01581 µM) |
| --- | --- | --- | --- | --- | --- | --- | --- | --- | --- | --- | --- | --- | --- | --- | --- | --- | --- | --- | --- | --- |
| 201T | 0.462 | 0.338 | 0.454 | 0.247 | 0.662 | 0.585 | 0.526 | 0.559 | 0.587 | 0.599 | 0.498 | 0.579 | 0.342 | 0.338 | 0.359 | 0.386 | 0.355 | 0.38 | – | – |
| A-427 | 0.363 | 0.158 | 0.153 | – | 0.92 | 0.76 | 0.547 | 0.714 | 0.755 | 0.545 | 0.246 | 0.169 | 0.142 | 0.486 | 0.548 | 0.495 | 0.473 | 0.565 | 0.121 | 0.305 |
| ABC-1 | 0.209 | 0.14 | 0.0972 | 0.0855 | 0.506 | 0.53 | 0.434 | – | 0.673 | 0.3 | 0.393 | 0.642 | 0.0806 | 0.73 | 0.946 | 0.514 | 0.475 | 0.639 | 0.0778 | 0.496 |
| BEN | 0.386 | 0.287 | 0.275 | 0.247 | 0.311 | 0.317 | 0.314 | 0.288 | 0.384 | 0.946 | 0.761 | 0.316 | 0.294 | 0.415 | 0.495 | 0.506 | 0.483 | 0.503 | 0.193 | 0.776 |
| CAL-12T | 0.196 | 0.142 | 0.166 | 0.152 | 0.317 | 0.391 | 0.324 | 0.371 | 0.341 | 0.416 | 0.409 | 0.257 | 0.167 | 0.216 | 0.549 | 0.314 | 0.526 | 0.576 | 0.09 | 0.338 |
| COR-L23 | 0.462 | 0.381 | 0.199 | 0.104 | 0.478 | 0.419 | 0.438 | 0.489 | 0.744 | – | – | – | – | 0.325 | 0.268 | 0.233 | 0.275 | 0.334 | 0.0775 | – |
| COR-L 105 | 0.279 | 0.173 | 0.269 | 0.266 | 0.307 | 0.42 | 0.305 | 0.291 | 0.393 | – | – | – | – | 0.387 | 0.402 | 0.365 | 0.412 | 0.395 | 0.183 | – |
| ChaGo-K-1 | 0.678 | 0.203 | 0.553 | 0.135 | 0.597 | 0.618 | 0.64 | 0.587 | 0.651 | 0.912 | 0.615 | 0.148 | 0.135 | 1.09 | 0.918 | 0.838 | 0.924 | 0.988 | 0.118 | – |
| EKVX | 0.557 | 0.399 | 0.284 | 0.209 | 0.414 | 0.524 | – | 0.479 | 0.476 | 0.239 | 0.286 | 0.321 | – | 0.396 | 0.35 | 0.31 | 0.339 | 0.465 | 0.15 | 0.119 |
| EMC-BAC-2 | 0.211 | 0.177 | 0.161 | 0.224 | 0.269 | 0.323 | 0.378 | 0.314 | 0.367 | 0.352 | 0.203 | 0.262 | 0.192 | 0.532 | 0.512 | 0.482 | 0.505 | 0.566 | 0.177 | 0.215 |
| EPLC-272H | 0.29 | 0.142 | 0.163 | 0.0783 | 0.424 | 0.377 | – | 0.358 | 0.332 | 0.235 | 0.111 | 0.0612 | 0.0657 | 0.255 | – | 0.323 | 0.305 | 0.318 | 0.0871 | 0.145 |
| H3255 | 0.408 | 0.339 | 0.265 | 0.216 | 0.407 | 0.319 | 0.487 | 0.389 | 0.399 | 0.658 | 0.324 | 0.204 | 0.126 | 0.288 | 0.32 | 0.391 | 0.311 | 0.326 | 0.182 | 0.474 |
| HARA | 0.448 | – | 0.128 | 0.0628 | 0.248 | 0.25 | 0.277 | 0.327 | 0.26 | 0.278 | 0.262 | – | 0.029 | 0.294 | 0.3 | 0.3 | 0.256 | 0.227 | 0.0398 | 0.169 |
| HCC-15 | 0.565 | – | 0.296 | 0.113 | 0.674 | 0.614 | 0.544 | 0.573 | 0.656 | 1.28 | 1.22 | 0.736 | 0.302 | 0.901 | 0.818 | 0.543 | 0.736 | 0.721 | 0.0919 | – |
| HCC-44 | 0.358 | 0.131 | 0.212 | 0.174 | – | – | – | – | – | 0.999 | 0.911 | 0.565 | 0.307 | 0.982 | 1.06 | 0.924 | 0.96 | 0.966 | 0.136 | – |
| HCC-78 | 0.361 | 0.37 | 0.308 | 0.336 | 0.552 | 0.313 | 0.345 | 0.587 | 0.401 | 0.674 | 0.438 | 0.375 | 0.326 | 0.481 | 0.48 | 0.501 | 0.444 | 0.442 | 0.296 | 0.463 |
| HCC-366 | 0.952 | – | 0.463 | 0.0332 | 0.715 | 0.699 | 0.578 | 0.587 | 0.622 | 0.255 | 0.165 | 0.0217 | 0.0248 | 0.442 | 0.36 | – | 0.301 | 0.555 | 0.0243 | – |
